Columns and labels:
[1] = biological target: PD-1/PD-L1 interaction (Homo sapiens (Human), UniProt Q9NZQ7); assay: HTRF PD-1/PD-L1 binding assay; assay type: biochemical; parameters: key to HTF assay (100 μM): +: positive compounds using 100 μM on HTRF
[2] = biological target: recombinant human PD-L1 (Homo sapiens (Human), UniProt Q9NZQ7); assay: Differential scanning fluorimetry (DSF) thermal denaturation; assay type: binding; settings: 100 μM compound, 1% DMSO
Procedure: DSF was performed in a C1000 Touch thermal cycler equipped with a CFX96 optical reaction module (Bio Rad). For all fluorescence measurements, samples contained recombinant human PD-L1 (ThermoFisher) at 500 μg/ml in phosphate buffered saline (PBS), pH 7.4, 5% (m/v) Mannitol, 5% (m/v) Trehalose, 0.02% (v/v) Tween® 80, 2.5-fold SYPRO® Orange, 1% (v/v) DMSO (Sigma-Aldrich) and 100 μM of each compound. The PCR plate was sealed with Optical-Quality Sealing Tape (Bio-Rad) and centrifuged at 300 g for 5 minutes. The DSF assay was carried out by increasing the temperature from 20 to 90° C., with a 1 second hold time every 0.2° C. and fluorescence acquisition using the FRET channel, after an initial incubation step of 10 minutes at 20° C. Control experiments in the absence of DMSO and/or compounds were routinely performed in each microplate.
Data were processed using CFX Manager Software V3.0 (Bio-Rad) and the GraphPad Prism 7. Temperature scan curves were fitted to a dose-response sigmoid function (Boltzmann equation) and the melting temperature (Tm values) were obtained from the midpoint of the transition. Normalization of the RFU was also performed to prevent distraction due to different maximum and minimum values upon compounds treatment. The RFU values from different data sets were converted to a common scale 0-1, where 0 represents the fluorescence of the native protein and 1 the fluorescence of the denatured protein. To monitor the binding properties towards each compound, DSF assays were run in the absence and presence of 100 μM compounds using 1% (v/v) DMSO as vehicle control.
To test this hypothesis, the melting temperature (Tm) of the PD-L1 was determined in thermal denaturation assays by differential scanning fluorimetry (DSF) and checked for a shift in the proteins' Tm (ΔTm) in the presence of the PD-L1 inhibitor candidates. The extent of temperature shift is proportional to the compounds' stabilizing effect and thereby used to infer inhibitors' affinity.

[3] = tested on: PD-1/PD-L1 interaction on MDA-MB-231 cells; assay: Cell-based PD-1/PD-L1 inhibition (accessible PD-L1 by flow cytometry), MDA-MB-231; parameters: species or system human; settings: Homo sapiens, 72 hours
Procedure: (§1) PD-1/PD-L1 Inhibition on Human Melanoma and Breast Cancer Cell Lines:
(§2) Cells (0.1×10^6 cells) were tested for PD-1/PD-L1 inhibition by co-incubation of hit compounds, DMSO (background), BMS-202 (Selleckchem) and anti-human PD-L1 (BioxCell, Clone 29E.2A3) (positive controls) for 72 hours in 2 ml DMEM medium. Non-confluent cell cultures were scraped into single-cell suspension, washed with PBS, and counted. Cells were subsequently stained with PD-1 fluorescent proxy for 30 minutes at 4° C., washed twice and resuspended in FACS buffer. Cells were analyzed using BD LSRFortessa (BD Biosciences) and data analyzed with FlowJo software for Mac (FlowJo, LLC 2013-2016). Mean fluorescence intensity (MFI) was derived from each sample. The PD-1/PD-L1 inhibition in cells was measured by a decrease in MFI relative to background.
The selected cell lines were incubated with the selected compounds to assess compound-binding affinities, and consequently PD-1/PD-L1 inhibition. The levels of remaining accessible PD-L1 in these cells were evaluated by FACS analysis using a fluorescence PD-1 proxy. To understand compound activity, different incubation times (24, 48 and 72 hours) were evaluated on MDA-MB-231 breast cancer cell line.
(§3) The remaining accessible PD-L1 was determined by flow cytometry.

[4] = tested on: PD-1/PD-L1 interaction on A375 cells; assay: Cell-based PD-1/PD-L1 inhibition (accessible PD-L1 by flow cytometry), A375; parameters: species or system human; settings: Homo sapiens, A-375; A375 stimulated with IFN-γ; 72 hours
Procedure: as §1, §2, §3

[5] = tested on: patient-derived tumor cells and autologous PBMC (CD8+ T cells); assay: Co-culture of patient-derived PBMC and autologous tumor cells; assay type: cell-based, human; settings: 72 hours of co-culture; 7 patients
Procedure: Tumor—Lymphocyte Co-Culture:
One day before co-culture, PBMC were re-suspended in RPMI-1640 supplemented with 150 U/ml IL-2 (Peprotech) and cultured overnight at 37° C. Prior to co-culture, tumor cells were stimulated overnight with 200 ng/ml human recombinant IFN-γ (Peprotech). The next day, tumor cells were scraped to single cells and re-suspended in RPMI. PBMC were seeded at a density of […] and stimulated with single cell-dissociated tumor cells at a 2:1 Effector:Target ratio. Co-cultures were performed in the presence of 150 U/ml IL-2 (Peprotech), 5 μg/ml of anti-CD28 (BioxCell) and αPD-L1 blocking antibody or small-molecule inhibitor for 72 hours. The cells were then stained with fluorochrome-labeled antibodies and analyzed using an LSR Fortessa (BD Biosciences) and FlowJo software. […]
The PBMC and tumor cells were co-cultured and treated with anti-CD28 (blue) and PD-L1 inhibitors (small-molecule inhibitor Compound 69 (yellow) and anti-PD-L1 (red)) for 72 hours. The PD-1/PD-L1 inhibition and T-cell activation were assessed using flow cytometry, and the obtained data is shown in FIGS. 8B-E. The anti-PD-L1 (αPD-L1) was added as the relevant control for PD-L1 inhibition.

Sequence of PD-1/PD-L1 interaction (Q9NZQ7 19-238): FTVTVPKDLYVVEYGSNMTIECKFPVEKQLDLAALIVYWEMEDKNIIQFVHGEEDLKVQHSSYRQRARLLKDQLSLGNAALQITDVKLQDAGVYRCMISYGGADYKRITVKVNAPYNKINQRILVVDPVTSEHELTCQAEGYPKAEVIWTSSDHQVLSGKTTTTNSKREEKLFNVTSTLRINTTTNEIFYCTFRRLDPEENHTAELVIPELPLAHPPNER
Sequence of recombinant human PD-L1 (Q9NZQ7 19-238): as above

CCCCCN(CCCCC)C(C)C(=O)c1cc(C)c2ccc3cc(C(C)C)ccc3c2c1.Cl (stereo not drawn) [Compound 69] gave an IC50 ([1]; HTRF dose-response starting from 100 μM) of 196 nM, an IC50 ([1]; Table A, HTRF dose-response, NA = Not applicable (No dose-response effect)) of 196 nM and an IC50 ([1]; Table B, HTRF dose-response, NA = no dose-response effect) of 196 nM. For the same molecule, the “HTF assay (100 μM)” value ([1]; compounds at 100 μM, hits defined as at least 50% inhibition of PD-1/PD-L1 interaction) was “+”, the “thermal shift / stabilization of PD-L1” value [2] was “stabilization of PD-L1” and the IC50 [3] was 1000 nM. The IC50 [4] was 1000 nM, the “CD107a upregulation in CD8+ T cells” value [5] was “induced” and the “IFN-γ secretion in CD8+ T cells” value [5] was “induced”.

Reference: patent publication US20230390287A1, “MODULATORS OF PD-L1/PD-1 INTERACTION AND USES THEREOF” (Ramot at Tel-Aviv University Ltd., priority 2021, published 2023)
